This is an account of results in patent US9840507B2, “5,6-dihydro-imidazo[1,2-a]pyrazin-8-ylamine derivatives useful as inhibitors of beta-secretase (BACE)” (Janssen Pharmaceutica, NV, priority 2010, dated 2017).

Where two headings read alike, the source gives them in different places.

Assay [1] has as its target T1, recombinant BACE1 protein (Homo sapiens, UniProt P56817).
T1 construct: recombinant BACE1 protein in a final concentration of 1 μg/ml
As to the kind of experiment: Biochemical FRET based assay. To be noted: recombinant BACE1 1 μg/ml, 10 μm substrate, 120 minutes, room temperature, pH 5.0; for IC50: read-out: Biochemical FRET based assay pIC50 (converted). The source says: This assay is a Fluorescence Resonance Energy Transfer Assay (FRET) based assay. The substrate for this assay is an APP derived 13 amino acids peptide that contains the ‘Swedish’ Lys-Met/Asn-Leu mutation of the amyloid precursor protein (APP) β-secretase cleavage site. This substrate also contains two fluorophores: (7-methoxycoumarin-4-yl) acetic acid (Mca) is a fluorescent donor with excitation wavelength at 320 nm and emission at 405 nm and 2,4-Dinitrophenyl (Dnp) is a proprietary quencher acceptor. […] Upon cleavage by BACE1, the fluorophore Mca is separated from the quenching group Dnp, restoring the full fluorescence yield of the donor. The increase in fluorescence is linearly related to the rate of proteolysis (Koike H et al. J. Biochem. 1999, 126, 235-242).
Briefly in a 384-well format recombinant BACE1 protein in a final concentration of 1 μg/ml is incubated for 120 minutes at room temperature with 10 μm substrate in incubation buffer (40 mM Citrate buffer pH 5.0, 0.04% PEG, 4% DMSO) in the absence or presence of compound. Next the amount of proteolysis is directly measured by fluorescence measurement at T=0 and T=120 (excitation at 320 nm and emission at 405 nm).
(§1) LC=Median of the low control values
=Low control: Reaction without enzyme
(§2) HC=Median of the High control values
=High Control: Reaction with enzyme % Effect=100−[(sample−LC)/(HC−LC)*100] % Control=(sample/HC)*100% % Controlmin=(sample−LC)/(HC−LC)*100

Assay [2] deals with Aβ42 produced and secreted into the medium of human neuroblastoma SKNBE2 cells. As to the kind of experiment: Cellular αlisa assay in SKNBE2 cells, Aβ42. Type of assay: cell-based. To be noted: for IC50: Homo sapiens, SKNBE2, 18 h, read-out: Cellular αlisa assay in SKNBE2 cells Aβ42 pIC50 (converted). Here is the method:
(§3) In two αlisa assays the levels of Aβtotal and Aβ42 produced and secreted into the medium of human neuroblastoma SKNBE2 cells are quantified. The assay is based on the human neuroblastoma SKNBE2 expressing the wild type Amyloid Precursor Protein (hAPP695). The compounds are diluted and added to these cells, incubated for 18 hours and then measurements of Aβ42 and Aβtotal are taken. Aβtotal and Aβ42 are measured by sandwich αlisa. αlisa is a sandwich assay using biotinylated antibody AbN/25 attached to streptavidin coated beads and antibody Ab4G8 or cAb42/26 conjugated acceptor beads for the detection of Aβtotal and Aβ42 respectively. In the presence of Aβtotal or Aβ42, the beads come into close proximity. The excitation of the Donor beads provokes the release of singlet oxygen molecules that triggers a cascade of energy transfer in the Acceptor beads, resulting in light emission. Light emission is measured after 1 hour incubation (excitation at […] and emission at 615 nm).
(§4) A best-fit curve is fitted by a minimum sum of squares method to the plot of % Controlmin versus compound concentration.
as §1
(§5) =Low control: cells preincubated without compound, without biotinylated Ab in the αlisa
as §2
(§6) =High Control: cells preincubated without compound % Effect=100−[(sample−LC)/(HC−LC)*100] % Control=(sample/HC)*100% % Controlmin=(sample−LC)/(HC−LC)*100

The subject of assay [3] is Aβtotal produced and secreted into the medium of human neuroblastoma SKNBE2 cells. As to the kind of experiment: Cellular αlisa assay in SKNBE2 cells, Aβtotal. Format: cell-based. The conditions noted are these: for IC50: Homo sapiens, SKNBE2, 18 h, read-out: Cellular αlisa assay in SKNBE2 cells Aβtotal pIC50 (converted). Here is the method: as §3, §4, §1, §5, §2, §6

The test system of assay [4] is brain levels of soluble Aβ42. Nature of the assay: In vivo efficacy: brain Aβ42 lowering (ELISA). Further details: species or system mouse. To be noted: 30 mpk. The source says: (§7) To determine whether acute administration of an Aβ42 peptide lowering agent would reduce Aβ peptide levels in vivo, non-transgenic rodents, e.g. mice or rats were used. Animals treated with the Aβ peptide lowering agent were examined and compared to those untreated or treated with vehicle and brain levels of soluble Aβ42 and total Aβ were quantitated by standard techniques, for example, using ELISA. Treatment periods varied from hours (h) to days and were adjusted based on the results of the Aβ42 lowering once a time course of onset of effect could be established.
(§8) A typical protocol for measuring Aβ42 lowering in vivo is shown but it is only one of many variations that could be used to optimize the levels of detectable Aβ. For example, Aβpeptide lowering compounds were formulated in 20% hydroxypropyl β cyclodextrin. The Aβ peptide lowering agents were administered as a single oral dose (p.o.) or a single subcutaneous dose (s.c.) to overnight fasted animals. After a certain time, usually 2 or 4 h (as indicated in Table 19), the animals were sacrificed and Aβ42 levels were analysed.
(§9) Blood was collected by decapitation and exsanguinations in EDTA-treated collection tubes. Blood was centrifuged at 1900 g for 10 minutes (min) at 4° C. and the plasma recovered and flash frozen for later analysis. The brain was removed from the cranium and hindbrain. The cerebellum was removed and the left and right hemisphere were separated. The left hemisphere was stored at −18° C. for quantitative analysis of test compound levels. The right hemisphere was rinsed with phosphate-buffered saline (PBS) buffer and immediately frozen on dry ice and stored at −80° C. until homogenization for biochemical assays.
(§10) Mouse brains from non-transgenic animals were resuspended in 8 volumes of 0.4% DEA (diethylamine)/50 mM NaCl containing protease inhibitors (Roche-11873580001 or 04693159001) per gram of tissue, e.g. for 0.158 g brain, add 1.264 ml of 0.4% DEA. All samples were homogenized in the FastPrep-24 system (MP Biomedicals) using lysing matrix D (MPBio #6913-100) at 6 m/s for 20 seconds. Homogenates were centrifuged at 221.300×g for 50 min. The resulting high speed supernatants were then transferred to fresh eppendorf tubes. Nine parts of supernatant were neutralized with 1 part 0.5 M Tris-HCl pH 6.8 and used to quantify Aβtotal and Aβ42.
(§11) To quantify the amount of Aβtotal and Aβ42 in the soluble fraction of the brain homogenates, Enzyme-Linked-Immunosorbent-Assays were used. Briefly, the standards (a dilution of synthetic Aβ1-40 and Aβ1-42, Bachem) were prepared in 1.5 ml Eppendorf tube in Ultraculture, with final concentrations ranging from 10000 to 0.3 pg/ml. The samples and standards were co-incubated with HRPO-labelled N-terminal antibody for Aβ42 detection and with the biotinylated mid-domain antibody 4G8 for Aβtotal detection. 50 μl of conjugate/sample or conjugate/standards mixtures were then added to the antibody-coated plate (the capture antibodies selectively recognize the C-terminal end of Aβ42, antibody JRF/cAβ42/26, for Aβ42 detection and the N-terminus of Aβ, antibody JRF/rAβ/2, for Aβtotal detection). The plate was allowed to incubate overnight at 4° C. in order to allow formation of the antibody-amyloid complex. Following this incubation and subsequent wash steps the ELISA for Aβ42 quantification was finished by addition of Quanta Blu fluorogenic peroxidase substrate according to the manufacturer's instructions (Pierce Corp., Rockford, Il). A reading was performed after 10 to 15 min (excitation 320 nm/emission 420 nm).
In this model at least 20% Aβ42 lowering compared to untreated animals would be advantageous.
(In an ELISA, binding on a coated surface is turned into a signal by an enzyme label.)

In assay [5] the test system is brain levels of total Aβ. Nature of the assay: In vivo efficacy: brain Aβtotal lowering (ELISA). Set-up: species or system mouse. To be noted: 30 mpk.
Description: as §7, §8, §9, §10, §11
For Aβtotal detection, a Streptavidine-Peroxidase-Conjugate was added, followed 60 min later by an additional wash step and addition of Quanta Blu fluorogenic peroxidase substrate according to the manufacturer's instructions (Pierce Corp., Rockford, Il). A reading was performed after 10 to 15 min (excitation 320 nm/emission 420 nm).

The mark [6] stands for this setting: SKNBE2 cells expressing hAPP695, incubated for 18 hours.

T1 sequence (P56817 46-501): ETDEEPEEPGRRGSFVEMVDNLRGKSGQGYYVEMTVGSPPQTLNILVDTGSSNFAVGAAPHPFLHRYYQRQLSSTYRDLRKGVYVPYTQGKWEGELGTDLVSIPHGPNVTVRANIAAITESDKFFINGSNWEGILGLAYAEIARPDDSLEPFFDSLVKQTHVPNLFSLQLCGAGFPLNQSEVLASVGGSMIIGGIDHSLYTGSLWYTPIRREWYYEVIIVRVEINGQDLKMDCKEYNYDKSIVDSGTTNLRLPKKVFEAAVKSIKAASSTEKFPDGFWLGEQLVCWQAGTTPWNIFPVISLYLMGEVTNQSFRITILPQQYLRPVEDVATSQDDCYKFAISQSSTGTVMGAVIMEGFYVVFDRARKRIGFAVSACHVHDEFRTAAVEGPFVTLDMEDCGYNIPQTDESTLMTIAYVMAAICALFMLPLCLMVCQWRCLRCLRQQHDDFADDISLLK

Turning to `C[C@@]1(c2cc(NC(=O)c3ncc(C#N)cc3Cl)ccc2F)Cn2ccnc2C(N)=N1` [Compound 21], the IC50 in assay [1] is 49 nM; in assay [2] (setting [6]), 9.33 nM; in assay [3] (setting [6]), 9.55 nM. Besides, the “Aβ42 (% Ctrl)_Mean” value in assay [4] (s.c., 2 h after administration) was determined as 33 % Ctrl. Further, the “Aβtotal (% Ctrl)_Mean” value in assay [5] (s.c., 2 h after administration) is listed as 7 % Ctrl.
Regarding `CC1(c2cccc(-c3cc(Cl)cc(Cl)c3)c2)Cn2ccnc2C(N)=N1` (racemic) [Compound 3, rac-6-(3′,5′-dichloro-biphenyl-3-yl)-6-methyl-5,6-dihydro-imidazo[1,2-a]pyrazin-8-ylamine], the IC50 in assay [1] is 26900 nM; in assay [2], 7940 nM; in assay [3] it was 7080 nM.
Turning to `NC1=NC(c2cc(NC(=O)c3ccc(F)cn3)ccc2F)(C(F)F)Cn2ccnc21` (stereo not shown) [Compound 29], the IC50 in assay [1] is greater than 30200 nM. In addition, the “Cellular αlisa assay in SKNBE2 cells Aβ42 pIC50” value in assay [2] (setting [6]) was less than 5. Moreover, the “Cellular αlisa assay in SKNBE2 cells Aβtotal pIC50” value in assay [3] (setting [6]) is given as less than 5.
Regarding `C[C@@]1(c2cc(NC(=O)c3ccc(C#N)cn3)ccc2F)Cn2ccnc2C(N)=N1` [Compound 18], the values for the IC50 in assay [2] (setting [6]) and in assay [3] (setting [6]) were 6.31 nM and 5.62 nM, respectively. For the same compound, the “Aβ42 (% Ctrl)_Mean” value in assay [4] (p.o., 2 h after administration) turned out to be 38 % Ctrl. For the same compound, the “Aβtotal (% Ctrl)_Mean” value in assay [5] (p.o., 2 h after administration) is listed as 52 % Ctrl.
For `C[C@@]1(c2cc(NC(=O)c3ncc(Cl)cc3F)ccc2F)Cn2ccnc2C(N)=N1` [Compound 20], the IC50 in assay [1] was 75.9 nM; in assay [2] (setting [6]), 17.4 nM; in assay [3] (setting [6]), 17.8 nM.
Turning to `CC1(c2cc(NC(=O)c3ccc(F)cn3)ccc2F)Cn2ccnc2C(N)=N1` (single isomer, unassigned) [Compound 10], the results for the IC50 in assay [1], in assay [2] (setting [6]) and in assay [3] (setting [6]) were 214 nM, 58.9 nM and 50.1 nM, respectively. Further, the “Aβ42 (% Ctrl)_Mean” value in assay [4] (s.c., 2 h after administration) was 45 % Ctrl. Further, the “Aβtotal (% Ctrl)_Mean” value in assay [5] (s.c., 2 h after administration) is given as 53 % Ctrl.
For the compound `NC1=NC(c2cc(NC(=O)c3ccc(F)cn3)ccc2F)(C(F)F)Cn2ccnc21` (stereo not shown) [Compound 27], the IC50 in assay [1] was 589 nM. Besides, in assay [2] (setting [6]), the “Cellular αlisa assay in SKNBE2 cells Aβ42 pIC50” value is recorded as 6.05. In addition, the “Cellular αlisa assay in SKNBE2 cells Aβtotal pIC50” value in assay [3] (setting [6]) is on record as 6.11.
Turning to `CC1(c2cc(-c3cncc(Cl)c3)c(F)cc2F)Cn2ccnc2C(N)=N1` (single isomer, unassigned) [Compound 12], the results for the IC50 in assay [1], in assay [2] (setting [6]) and in assay [3] (setting [6]) were 18600 nM, 2340 nM and 2190 nM, respectively.
For `C[C@@]1(c2cc(NC(=O)c3ccc(F)cn3)ccc2F)Cn2cc(C(F)(F)F)nc2C(N)=N1` [Compound 24], the IC50 in assay [1] is 132 nM; in assay [2] (setting [6]), 38.9 nM; in assay [3] (setting [6]) it was 33.9 nM. In assay [4] (s.c., 4 h after administration), the “Aβ42 (% Ctrl)_Mean” value amounted to 50 % Ctrl. For the same compound, the “Aβtotal (% Ctrl)_Mean” value in assay [5] (s.c., 4 h after administration) is 67 % Ctrl.
With `C[C@@]1(c2cc(NC(=O)c3ccc(C#N)cn3)ccc2F)Cn2cc(C(F)F)nc2C(N)=N1` [Compound 49], the figures for the IC50 in assay [1], in assay [2] (setting [6]) and in assay [3] (setting [6]) were 97.7 nM, 8.51 nM and 9.33 nM, respectively.
For `C[C@@]1(c2cc(NC(=O)c3ccc(Cl)cn3)ccc2F)Cn2cc(C(F)F)nc2C(N)=N1` [Compound 50], in that order: 58.9 nM, 7.41 nM and 8.13 nM.
The like results for `C[C@@]1(c2cc(NC(=O)c3ncc(Cl)cc3Cl)ccc2F)Cn2cc(C(F)(F)F)nc2C(N)=N1` [Compound 25] were, in that order, 46.8 nM, 21.9 nM and 17 nM.
For `COc1cnc(C(=O)Nc2ccc(F)c([C@]3(C)Cn4cc(Br)nc4C(N)=N3)c2)cn1` [Compound 55], in that order: 112 nM, 31.6 nM and 32.4 nM.
`C[C@@]1(c2cc(NC(=O)c3ccc(F)cn3)ccc2F)Cn2cc(Br)nc2C(N)=N1` [Compound 54]: the IC50 is 75.9 nM in assay [1], 32.4 nM in assay [2] (setting [6]) and 35.5 nM in assay [3] (setting [6]).
`COc1cncc(-c2cccc(C3(C)Cn4ccnc4C(N)=N3)c2)c1` (racemic) [Compound 2, rac-6-[3-(5-methoxy-pyridin-3-yl)-phenyl]-6-methyl-5,6-dihydro-imidazo[1,2-a]pyrazin-8-ylamine]: in assay [1], the “Biochemical FRET based assay pIC50” value is given as greater than 4.52. Moreover, the values for the IC50 in assay [2] (setting [6]) and in assay [3] (setting [6]) were 2140 nM and 2340 nM, respectively.
Take `C[C@@]1(c2cc(NC(=O)c3ncc(Cl)cc3Cl)ccc2F)Cn2ccnc2C(N)=N1` [Compound 19]: the IC50 in assay [1] was 49 nM; in assay [2] (setting [6]) it was 11 nM; in assay [3] (setting [6]), 9.77 nM.
For `C[C@@]1(c2cc(NC(=O)c3ccsn3)ccc2F)Cn2ccnc2C(N)=N1` [Compound 45], in that order: 427 nM, 66.1 nM and 67.6 nM.
